Like-named read-outs stand apart in the source and are kept apart here.
Legend:
[1] = in vivo; settings: Sprague-Dawley, rat, po, 39.2 g/kg/day; for Cmax: C max; for Tmax: T max
[2] = PK study of SM components in plasma of AIA rats by UPLC-MS/MS (MG vs MPS group); settings: for Absorption under the intervention of PS: MPS vs MG group
[3] = rat, in vivo
[4] = MG group: AIA rats, saline 21 days, then oral SM 39.2 g crude drug/kg, plasma, mean ± SEM
[5] = MPS group: AIA rats, oral PS 9.8 g crude drug/kg/day 21 days, then oral SM 39.2 g crude drug/kg, plasma, mean ± SEM
[6] = t 1/2, MG group: AIA rats, saline 21 days, then oral SM 39.2 g crude drug/kg, plasma, mean ± SEM
[7] = t 1/2, MPS group: AIA rats, oral PS 9.8 g crude drug/kg/day 21 days, then oral SM 39.2 g crude drug/kg, plasma, mean ± SEM
[8] = MPS group compared with the MG group, AIA rats
[9] = Sprague-Dawley, po, 39.2 g/kg/day

Row | Structure (SMILES) | AUC 0-t [1, 4] [ng·h/mL] | AUC 0-t [1, 5] [ng·h/mL] | AUC(0-inf) [1, 4] [ng·h/mL] | AUC(0-inf) [1, 5] [ng·h/mL] | Cmax [1, 4] [ng/mL] | Cmax [1, 5] [ng/mL] | Tmax [1, 4] [h] | Tmax [1, 5] [h] | half-life [1, 6] [h] | half-life [1, 7] [h] | Absorption under the intervention of PS ([2]; AIA rats) | other results
1 | O=C(/C=C/c1ccc(O[C@@H]2O[C@H](CO)[C@@H](O)[C@H](O)[C@H]2O)cc1)c1ccc(O)cc1O [Isoliquiritin] | 23.3 ± 0.956 | 21.9 ± 1.76 | 30.8 ± 2.93 | 33.1 ± 3.19 | 13.6 ± 1.06 | 14.2 ± 1.55 | 0.194 ± 0.079 | 0.111 ± 0.062 | 5.85 ± 2.02 | 7.61 ± 1.85 | – | –
2 | COc1ccc(-c2coc3cc(O)ccc3c2=O)cc1O [Calycosin] | 12.3 ± 1.06 | 12.4 ± 0.972 | 14.3 ± 1.19 | 13.6 ± 0.642 | 8.48 ± 2.43 | 6.61 ± 1.44 | 0.083 ± 0.001 | 0.083 ± 0.001 | 4.94 ± 0.315 | 3.53 ± 0.666 | – | –
3 | C[C@@]12C[C@@]3(O)O[C@@H](O1)[C@]1(COC(=O)c4ccccc4)[C@H]3C[C@@]12O[C@@H]1O[C@H](CO)[C@@H](O)[C@H](O)[C@H]1O [Paeoniflorin] | 2540 ± 95.9 | 2870 ± 71.7 | 2460 ± 223 | 2900 ± 68.7 | 1920 ± 225 | 2060 ± 352 | 0.438 ± 0.108 | 0.396 ± 0.18 | 2.13 ± 0.102 | 1.99 ± 0.126 | increased | Change of AUC 0-t after oral PS [2, 8]: increased; Change of AUC 0-∞ after oral PS [2, 8]: increased
4 | O=C1C[C@@H](c2ccc(O[C@@H]3O[C@H](CO)[C@@H](O)[C@H](O)[C@H]3O)cc2)Oc2cc(O)ccc21 [Liquiritin] | 300 ± 52.8 | – | 307 ± 53.9 | – | 126 ± 18.5 | – | 0.167 ± 0.083 | 0.083 ± 0.001 | 2.09 ± 0.132 | 3.3 ± 0.429 | increased | Change of C max after oral PS [2, 8]: significantly increased; AUC 0-t [2, 5]: 321.663 ± 49.723 ng·h/mL; AUC 0-∞ [2, 5]: 339.781 ± 52.584 ng·h/mL; C max [2, 5]: 190.023 ± 19.153 ng/mL
5 | C[C@@]12C[C@@]3(O)O[C@@H](O1)[C@]1(COC(=O)c4ccccc4)[C@H]3C[C@@]12O[C@@H]1O[C@H](COC(=O)c2ccccc2)[C@@H](O)[C@H](O)[C@H]1O [Benzoylpaeoniflorin] | 27.9 ± 5.4 | 31.6 ± 6.74 | 30.6 ± 6.08 | 37.9 ± 9.82 | 14.8 ± 2.66 | 24.3 ± 4 | 0.139 ± 0.079 | 0.083 ± 0.001 | 3.59 ± 0.489 | 6.96 ± 2.27 | increased | Change of C max after oral PS [2, 8]: significantly increased
6 | C=C1[C@H]2C[C@@]3([C@@H]1O)[C@@H](CC2=O)[C@]12[C@@H]4C[C@H]3[C@H]1N(CC)C[C@]4(C)CC[C@@H]2O [Songorine] | – | – | – | – | – | – | – | – | – | – | – | AUC 0-t [3, 9]: 80.730 ± 5.544 ng·h/mL; AUC 0-∞ [3, 9]: 84.255 ± 5.364 ng·h/mL; C max [3, 9]: 17.665 ± 1.910 ng/mL; T max [3, 9]: 0.917 ± 0.773 h; t 1/2 [3, 9]: 2.522 ± 0.269 h; Absorption under the intervention of PS [3]: increased; Change of AUC 0-t after oral PS ([3]; po): increased; Change of AUC 0-∞ after oral PS ([3]; po): increased; AUC 0-t [1]: 60.2 ± 6.5 ng·h/mL; AUC(0-inf) [1]: 64.6 ± 6.04 ng·h/mL; Cmax [1]: 14 ± 2.32 ng/mL; Tmax [1]: 0.667 ± 0.236 h; half-life ([1]; t 1/2): 2.64 ± 0.461 h
7 | CN[C@@H](C)[C@H](O)c1ccccc1 [Ephedrine] | 1720 ± 96.8 | – | 1750 ± 93.6 | 1580 ± 228 | 674 ± 137 | 662 ± 149 | – | 0.333 ± 0.118 | 1.85 ± 0.273 | 1.74 ± 0.108 | – | T max [2, 4]: 0.250 ± 0.001 h; AUC 0-t [2, 5]: 1559.029 ± 227.025 ng·h/mL

Reference: article PMC10787407, “Regulation of polysaccharide in Wu‐tou decoction on intestinal microflora and pharmacokinetics of small molecular compounds in AIA rats” (Chinese Medicine, 2024)
